The values that follow come from patent US7250442B2, “Dihydroindol-2-one derivatives as steroid hormone nuclear receptor modulators” (Eli Lilly and Company, priority 2003, dated 2007).

The term Ki denotes a measure of affinity in units of concentration, obtained from inhibition or displacement.

The target in the experiment is T1, glucocorticoid receptor (Homo sapiens, UniProt P04150).
T1 construct: host or cells: A549 human lung epithelial cells (sonicated cell extract)
T1 sequence (P04150 1-777): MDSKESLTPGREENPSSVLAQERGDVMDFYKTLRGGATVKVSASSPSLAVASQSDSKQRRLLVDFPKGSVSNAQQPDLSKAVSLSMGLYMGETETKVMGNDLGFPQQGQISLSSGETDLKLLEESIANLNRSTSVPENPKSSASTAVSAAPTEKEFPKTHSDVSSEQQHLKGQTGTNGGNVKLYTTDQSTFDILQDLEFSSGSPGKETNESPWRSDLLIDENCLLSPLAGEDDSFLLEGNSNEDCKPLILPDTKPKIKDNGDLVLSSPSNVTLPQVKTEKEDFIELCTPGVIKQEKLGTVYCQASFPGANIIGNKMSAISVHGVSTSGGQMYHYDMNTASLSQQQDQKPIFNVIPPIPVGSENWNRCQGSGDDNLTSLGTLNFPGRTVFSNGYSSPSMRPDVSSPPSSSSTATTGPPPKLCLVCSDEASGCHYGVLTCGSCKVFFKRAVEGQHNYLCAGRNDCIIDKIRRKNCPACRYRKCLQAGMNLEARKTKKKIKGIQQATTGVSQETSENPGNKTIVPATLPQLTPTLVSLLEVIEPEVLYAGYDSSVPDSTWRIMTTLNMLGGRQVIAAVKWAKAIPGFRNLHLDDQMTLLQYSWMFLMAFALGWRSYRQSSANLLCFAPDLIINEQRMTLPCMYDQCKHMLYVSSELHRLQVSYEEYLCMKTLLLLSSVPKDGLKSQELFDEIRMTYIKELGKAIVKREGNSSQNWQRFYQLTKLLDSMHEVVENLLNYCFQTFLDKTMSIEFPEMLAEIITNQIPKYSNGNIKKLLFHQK
The experiment is described as follows: Glucocorticoid Receptor Binding Assay ([3H]-dexamethasone displacement, A549 cell extract). The note with it: A549 human lung epithelial cell extract, 1.86 nM [3H]-dexamethasone; read-out: GR Ki. The procedure: Glucocorticoid Receptor Binding Assay:
A549 human lung epithelial cells (ATCC) are grown at a scale where gram quantity cell pellets are obtained. Harvested cell pellets are washed twice in cold phosphate buffered saline, centrifuged, and resuspended in cold assay binding buffer. The assay binding buffer consists of 10% glycerol, 50 mM Tris-HCl (pH7.2), 75 mM sodium chloride, 1.5 mM magnesium chloride, 1.5 mM EDTA, and 10 mM sodium molybdate. Cell suspensions were lysed via sonication, centrifuged, and the “extract” supernatant is snap frozen and stored at −80C. until needed.
GR binding assays are performed in a final volume of 140 ul containing 50-200 ug of A549 cell extract and 1.86 nM [^3H]-dexamethasone (Amersham) plus varying concentrations of test compound or vehicle. Briefly, assays are prepared at RT in 96-well Fisher 3356 plates, each well containing 100 ul of A549 cell extract, 20 ul of [^3H]-dexamethasone, and 20 ul of test compound/vehicle. Incubations are carried out at 4 degrees celsius for 16 hours. After incubation, 70 ul of 3× dextran-coated charcoal solution is added to each reaction, mixed, and incubated for 8 minutes at RT. 3×-dextran-coated charcoal solution consists of 250 ml assay binding buffer, 3.75 g Norit A charcoal (Sigma), and 1.25 g dextran T-70 (Amersham). Charcoal/unbound radioligand complexes are removed by centrifugation of the plate and 140 ul of supernatant from each well is transferred to another 96 well Optiplate (Packard Instruments). 200 ul of Microscint-20 scinillant (Packard Instruments) is added to each well and amount of receptor bound radioligand is determined using Packard Instruments TopCount instrument.
IC50 values, defined as the concentration of test compound required to decrease [^3H]-dexamethasone binding by 50%, are then determined. Ki values for each respective test compound can then be calculated by application of the Cheng-Prusoff equation as described in Cheng et al., Relationship Between The Inhibition Constant (Ki) and The Concentration of Inhibitor Which Causes 50% Inhibition (IC50) of an Enzymatic Reaction, Biochem. Pharmacol., 22: 3099-31088; (1973).
As for `Cc1cc(C2(c3cc(C)c(O)c(C)c3)C(=O)N(Cc3cccc(F)c3F)c3ccccc32)cc(C)c1O` [Example 66, 1-(2,3-Difluoro-benzyl)-3,3-bis-(4-hydroxy-3,5-dimethyl-phenyl)-1,3-dihydro-indol-2-one], the Ki is ≤ 500 nM.

As to `Cc1cc(C2(c3cc(C)c(O)c(C)c3)C(=O)N(Cc3c(F)cccc3Cl)c3ccccc32)cc(C)c1O` [Example 76, 1-(2-Chloro-6-fluoro-benzyl)-3,3-bis-(4-hydroxy-3,5-dimethyl-phenyl)-1,3-dihydro-indol-2-one], the Ki was ≤ 500 nM.

In the case of `Cc1cc(C2(c3cc(C)c(O)c(C)c3)C(=O)N(Cc3ccccc3Cl)c3ccccc32)cc(C)c1N` (stereo not shown) [Example 35, 3-(4-Amino-3,5-dimethyl-phenyl)-1-(2-chloro-benzyl)-3-(4-hydroxy-3,5-dimethyl-phenyl)-1,3-dihydro-indol-2-one], the Ki was ≤ 500 nM.

On to `CCc1cccc2c1N(Cc1ccccc1Cl)C(=O)C2(c1cc(C)c(O)c(C)c1)c1cc(C)c(O)c(C)c1` [Example 25, 1-(2-Chloro-benzyl)-7-ethyl-3,3-bis-(4-hydroxy-3,5-dimethyl-phenyl)-1,3-dihydro-indol-2-one], for which the Ki is ≤ 1000 nM.

As for `COc1ccc(-c2nc(CN3C(=O)C(c4cc(C)c(O)c(C)c4)(c4cc(C)c(O)c(C)c4)c4ccccc43)cs2)cc1` [Example 94, 3,3-Bis-(4-hydroxy-3,5-dimethyl-phenyl)-1-[2-(4-methoxy-phenyl)-thiazol-4-ylmethyl]-1,3-dihydro-indol-2-one], the Ki was ≤ 10000 nM.

Take `Cc1cc(C2(c3cc(C)c(O)c(C)c3)C(=O)N(Cc3csc(-c4ccccc4)n3)c3ccccc32)cc(C)c1O` [Example 91, 3,3-Bis-(4-hydroxy-3,5-dimethyl-phenyl)-1-(2-phenyl-thiazol-4-ylmethyl)-1,3-dihydro-indol-2-one]: the Ki was ≤ 10000 nM.

Consider `Cc1cccc(N2C(=O)C(c3cc(C)c(O)c(C)c3)(c3cc(C)c(O)c(C)c3)c3ccccc32)c1` [Example 133, 3,3-Bis-(4-hydroxy-3,5-dimethyl-phenyl)-1-m-tolyl-1,3-dihydro-indol-2-one], for which the Ki is ≤ 500 nM.

As for `Cc1cc(C2(c3cc(C)c(O)c(C)c3)C(=O)N(Cc3ccccc3OC(F)F)c3ccccc32)cc(C)c1O` [Example 79, 1-(2-Difluoromethoxy-benzyl)-3,3-bis-(4-hydroxy-3,5-dimethyl-phenyl)-1,3-dihydro-indol-2-one], the Ki is ≤ 500 nM.

In the case of `Cc1cc(C2(c3cc(C)c(O)c(C)c3)C(=O)N(Cc3cccc([N+](=O)[O-])c3)c3ccccc32)cc(C)c1O` [Example 85, 3,3-Bis-(4-hydroxy-3,5-dimethyl-phenyl)-1-(3-nitro-benzyl)-1,3-dihydro-indol-2-one], the Ki was ≤ 500 nM.

In the case of `COc1ccc(-c2nc(CN3C(=O)C(c4cc(C)c(O)c(C)c4)(c4cc(C)c(O)c(C)c4)c4ccccc43)no2)cc1` [Example 99, 3,3-Bis-(4-hydroxy-3,5-dimethyl-phenyl)-1-[5-(4-methoxy-phenyl)-[1,2,4]oxadiazol-3-ylmethyl]-1,3-dihydro-indol-2-one], the Ki was ≤ 1000 nM.

As to `Cc1ccc2c(c1)C(c1cc(C)c(O)c(C)c1)(c1cc(C)c(O)c(C)c1)C(=O)N2Cc1ccccc1C#N` [Example 23, 2-[3,3-Bis-(4-hydroxy-3,5-dimethyl-phenyl)-5-methyl-2-oxo-2,3-dihydro-indol-1-ylmethyl]-benzonitrile], the Ki is ≤ 500 nM.

Regarding `Cc1ccccc1CN1C(=O)C(c2cc(C)c(O)c(C)c2)(c2cc(C)c(O)c(C)c2)c2cc(Br)ccc21` [Example 20, 5-Bromo-3,3-bis-(4-hydroxy-3,5-dimethyl-phenyl)-1-(2-methyl-benzyl)-1,3-dihydro-indol-2-one], the Ki is ≤ 500 nM.

Turning to `Cc1cc(C2(c3cc(C)c(O)c(C)c3)C(=O)N(Cc3ccc(F)cc3F)c3ccccc32)cc(C)c1O` [Example 43, 1-(2,4-Difluoro-benzyl)-3,3-bis-(4-hydroxy-3,5-dimethyl-phenyl)-1,3-dihydro-indol-2-one], the Ki is ≤ 500 nM.

In the case of `Cc1cc(C2(c3cc(C)c(O)c(C)c3)C(=O)N(Cc3ccccc3Cl)c3ccccc32)cc(C)c1O` [Example 11, 1-(2-Chloro-benzyl)-3,3-bis-(4-hydroxy-3,5-dimethyl-phenyl)-1,3-dihydro-indol-2-one], the Ki was ≤ 500 nM.

For the compound `Cc1cc(C2(c3cc(C)c(O)c(C)c3)C(=O)N(c3ccccc3Cl)c3ccccc32)cc(C)c1O` [Example 129, 1-(2-Chloro-phenyl)-3,3-bis-(4-hydroxy-3,5-dimethyl-phenyl)-1,3-dihydro-indol-2-one], the Ki is ≤ 500 nM.

With `Cc1cc(C2(c3cc(C)c(O)c(C)c3)C(=O)N(c3cccc(C(C)C)c3)c3ccccc32)cc(C)c1O` [Example 138, 3,3-Bis-(4-hydroxy-3,5-dimethyl-phenyl)-1-(3-isopropyl-phenyl)-1,3-dihydro-indol-2-one], the Ki was ≤ 500 nM.

As to `Cc1cc(C2(c3cc(C)c(O)c(C)c3)C(=O)N(Cc3c(Cl)cccc3Cl)c3ccccc32)cc(C)c1O` [Example 113, 1-(2,6-Dichloro-benzyl)-3,3-bis-(4-hydroxy-3,5-dimethyl-phenyl)-1,3-dihydro-indol-2-one], the inhibitory constant (Ki) is ≤ 500 nM.

On to `Cc1cc(C2(c3cc(C)c(O)c(C)c3)C(=O)N(Cc3ccc(C(F)(F)F)cc3C(F)(F)F)c3ccccc32)cc(C)c1O` [Example 68, 1-(2,4-Bis-trifluoromethyl-benzyl)-3,3-bis-(4-hydroxy-3,5-dimethyl-phenyl)-1,3-dihydro-indol-2-one], for which the Ki is ≤ 1000 nM.

In the case of `Cc1cc(C2(c3cc(C)c(O)c(C)c3)C(=O)N(Cc3ccc(Br)cc3)c3ccccc32)cc(C)c1O` [Example 58, 1-(4-Bromo-benzyl)-3,3-bis-(4-hydroxy-3,5-dimethyl-phenyl)-1,3-dihydro-indol-2-one], the Ki was ≤ 500 nM.

`Cc1cc(C2(c3cc(C)c(O)c(C)c3)C(=O)N(Cc3ccncc3)c3ccccc32)cc(C)c1O` [Example 111, 3,3-Bis-(4-hydroxy-3,5-dimethyl-phenyl)-1-pyridin-4-ylmethyl-1,3-dihydro-indol-2-one]: the Ki is ≤ 500 nM.

As for `Cc1cc(C2(c3cc(C)c(O)c(C)c3)C(=O)N(Cc3ccc(OCc4ccccc4)cc3)c3ccccc32)cc(C)c1O` [Example 74, 1-(4-Benzyloxy-benzyl)-3,3-bis-(4-hydroxy-3,5-dimethyl-phenyl)-1,3-dihydro-indol-2-one], the Ki was ≤ 1000 nM.

As for `Cc1cc(C2(c3cc(C)c(O)c(C)c3)C(=O)N(Cc3ccccc3)c3ccc(Br)cc32)cc(C)c1O` [Example 15, 1-Benzyl-5-bromo-3,3-bis-(4-hydroxy-3,5-dimethyl-phenyl)-1,3-dihydro-indol-2-one], the inhibitory constant (Ki) was ≤ 1000 nM.

For `Cc1cc(C2(c3cc(C)c(O)c(C)c3)C(=O)N(Cc3ccc(OC(F)(F)F)cc3)c3ccccc32)cc(C)c1O` [Example 67, 3,3-Bis-(4-hydroxy-3,5-dimethyl-phenyl)-1-(4-trifluoromethoxy-benzyl)-1,3-dihydro-indol-2-one], the inhibition constant (Ki) is ≤ 500 nM.

As for `Cc1ccc2c(c1)C(c1cc(C)c(O)c(C)c1)(c1cc(C)c(O)c(C)c1)C(=O)N2Cc1ccccc1` [Example 17, 1-Benzyl-3,3-bis-(4-hydroxy-3,5-dimethyl-phenyl)-5-methyl-1,3-dihydro-indol-2-one], the Ki is ≤ 500 nM.

`Cc1ccc(N2C(=O)C(c3cc(C)c(O)c(C)c3)(c3cc(C)c(O)c(C)c3)c3ccccc32)cc1` [Example 125, 3,3-Bis-(4-hydroxy-3,5-dimethyl-phenyl)-1-p-tolyl-1,3-dihydro-indol-2-one]: the Ki is ≤ 500 nM.
